Test results published in the NIST ThermoML archive (doi:10.1021/je5010214).

Details: Liquid, Vibrating tube method

CCCCO [butan-1-ol]
Details	mass density [kg/m3]
353.15 K, 65063 kPa	811.071
353.16 K, 2113.4 kPa	763.181
353.16 K, 33964 kPa	790.701
353.16 K, 62043 kPa	809.275
353.16 K, 66024 kPa	811.636
358.15 K, 264.1 kPa	755.935
358.15 K, 508.4 kPa	756.19
358.15 K, 926.8 kPa	756.64
358.15 K, 1013.9 kPa	756.732
358.15 K, 3021.2 kPa	758.947
358.15 K, 4930 kPa	760.98
358.15 K, 10073 kPa	766.29
358.15 K, 12137 kPa	768.259
358.15 K, 14905 kPa	770.903
358.15 K, 17041 kPa	772.871
358.15 K, 17965 kPa	773.738
358.15 K, 22175 kPa	777.415
358.15 K, 25059 kPa	779.849
358.15 K, 28035 kPa	782.278
358.15 K, 30002 kPa	783.844
358.15 K, 31978 kPa	785.37
358.15 K, 32793 kPa	786.01
358.15 K, 33850 kPa	786.716
358.15 K, 35027 kPa	787.554
358.15 K, 37872 kPa	789.731
358.15 K, 40037 kPa	791.31
358.15 K, 42100 kPa	792.749
358.15 K, 47958 kPa	796.761
358.15 K, 50038 kPa	798.154
358.15 K, 52081 kPa	799.474
358.15 K, 55073 kPa	801.393
358.15 K, 57918 kPa	803.161
358.15 K, 60043 kPa	804.453
358.15 K, 62067 kPa	805.674
358.15 K, 64986 kPa	807.407
358.15 K, 66109 kPa	808.067
358.16 K, 95.1 kPa	755.754
358.16 K, 2083.9 kPa	757.886
358.16 K, 6993.5 kPa	763.142
358.16 K, 9030.2 kPa	765.202
358.16 K, 20162 kPa	775.665
358.16 K, 45054 kPa	794.81
363.15 K, 94 kPa	752.456
363.15 K, 334 kPa	752.741
363.15 K, 601.7 kPa	753.061
363.15 K, 892.9 kPa	753.404
363.15 K, 961.6 kPa	753.487
363.15 K, 1034.7 kPa	753.567
363.15 K, 1986 kPa	754.594
363.15 K, 2940.4 kPa	755.648
363.15 K, 4979.2 kPa	757.84
363.15 K, 9959.5 kPa	762.855
363.15 K, 11971 kPa	764.806
363.15 K, 14936 kPa	767.534
363.15 K, 17973 kPa	770.255
363.15 K, 19940 kPa	771.991
363.15 K, 24872 kPa	776.146
363.15 K, 27993 kPa	778.673
363.15 K, 30062 kPa	780.285
363.15 K, 31961 kPa	781.745
363.15 K, 33033 kPa	782.563
363.15 K, 34000 kPa	783.178
363.15 K, 35028 kPa	783.945
363.15 K, 37919 kPa	786.081
363.15 K, 39916 kPa	787.488
363.15 K, 42016 kPa	788.986
363.15 K, 47947 kPa	793.03
363.15 K, 50050 kPa	794.458
363.15 K, 52023 kPa	795.718
363.15 K, 54940 kPa	797.589
363.15 K, 57917 kPa	799.479
363.15 K, 59980 kPa	800.724
363.15 K, 62043 kPa	802.008
363.15 K, 64924 kPa	803.734
363.15 K, 66088 kPa	804.418
363.16 K, 6920.2 kPa	759.821
363.16 K, 8964.8 kPa	761.886
363.16 K, 21933 kPa	773.696
363.16 K, 44987 kPa	791.029
